This passage reports EC50 and IC50 results from ChEMBL document CHEMBL1201862, “PubChem BioAssay data set” (2004).

Active and inactive are the calls of the source.

In assay [1] the target is T1, Kappa-type opioid receptor (Homo sapiens, UniProt P41145). Description: SAR analysis of small molecule agonists of the kappa opioid receptor via a luminescent beta-arrestin assay - Set 3. [Related pubchem assays (depositor defined):AID1777, AID1785, AID1786, AID1966, AID2133, AID2136, AID2284, AID2500]. Type of assay: functional.
T1 sequence (P41145 whole entry): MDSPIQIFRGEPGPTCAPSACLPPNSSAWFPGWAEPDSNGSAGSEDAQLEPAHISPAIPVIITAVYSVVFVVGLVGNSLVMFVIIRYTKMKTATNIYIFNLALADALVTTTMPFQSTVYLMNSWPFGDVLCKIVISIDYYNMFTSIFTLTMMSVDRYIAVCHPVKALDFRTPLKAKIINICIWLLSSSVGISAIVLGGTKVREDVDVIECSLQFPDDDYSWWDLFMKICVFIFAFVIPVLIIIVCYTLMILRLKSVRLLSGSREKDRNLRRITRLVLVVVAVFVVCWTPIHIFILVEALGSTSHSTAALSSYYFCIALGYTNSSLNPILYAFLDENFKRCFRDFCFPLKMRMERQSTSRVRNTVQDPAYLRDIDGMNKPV
Assay [2] concerns the target T2, Delta-type opioid receptor (Homo sapiens, UniProt P41143). Description: HTS Image-Based Screen for Antagonists of the DOR Receptor. [Related pubchem assays (depositor defined):AID1777, AID1785, AID1786, AID2133]. It is filed as functional.
Assay [3] concerns the target T1, Kappa-type opioid receptor. Type of assay: functional.
Assay [4] deals with T1, Kappa-type opioid receptor. Type of assay: functional. This is another data set of the same source.
The target in the next assay is Mu-type opioid receptor (Homo sapiens, UniProt P35372). Nature of the assay: HTS Image-Based Screen for Agonists of the MOR Receptor. [Related pubchem assays (depositor defined):AID1777, AID1785, AID1786, AID2133]. Type of assay: functional.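 Also: imaging of beta-arrestin GFP recruitment into spots after receptor activation.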
The target in assay [5] is T2, Delta-type opioid receptor. Description: HTS Image-Based Screen for Agonists of the DOR Receptor. [Related pubchem assays (depositor defined):AID1777, AID1786, AID2133]. It is filed as functional.
In another assay the target is Beta-galactosidase (Escherichia coli, UniProt Q8VNN2). Type of assay: functional.
Assay [6] addresses T3, G-protein coupled receptor 35 (Homo sapiens, UniProt Q9HC97). Description: SAR analysis of Antagonists of the GPR35 Receptor using an Image-Based Assay - Set 6. [Related pubchem assays (depositor defined):AID2013, AID2026]. Type of assay: functional.
For assay [7], the target named is G-protein coupled receptor 55 (Homo sapiens, UniProt Q9Y2T6). Nature of the assay: SAR Analysis of Selective Antagonists of GPR55 using an Image-Based Assay - Set 4. [Related pubchem assays (depositor defined):AID2013, AID2026]. It is filed as functional.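 Also: antagonism of response to 5 µM lysophosphatidylinositol agonist.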
The target of assay [8] is T4, Cannabinoid receptor 2 (Homo sapiens, UniProt P34972). Nature of the assay: SAR analysis of antagonists of the Cannabinoid Receptor 2 using an Image-Based Assay - Set 3. [Related pubchem assays (depositor defined):AID2013, AID2026]. It is filed as functional.
T4 sequence (P34972 whole entry): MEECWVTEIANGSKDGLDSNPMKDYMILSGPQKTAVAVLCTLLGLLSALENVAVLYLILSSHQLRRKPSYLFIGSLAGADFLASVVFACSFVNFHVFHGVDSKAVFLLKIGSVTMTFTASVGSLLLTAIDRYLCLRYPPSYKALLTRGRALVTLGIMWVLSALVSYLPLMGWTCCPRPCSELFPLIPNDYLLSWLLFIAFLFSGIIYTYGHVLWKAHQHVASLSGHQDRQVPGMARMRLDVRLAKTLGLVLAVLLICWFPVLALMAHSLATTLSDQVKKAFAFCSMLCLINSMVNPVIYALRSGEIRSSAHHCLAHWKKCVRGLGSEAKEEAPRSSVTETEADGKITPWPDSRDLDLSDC
The target of assay [9] is T5, Cannabinoid receptor 1 (Homo sapiens, UniProt P21554). Description: SAR analysis of agonists of the Cannabinoid Receptor 1 using an Image-Based Assay - Set 4. [Related pubchem assays (depositor defined):AID2013, AID2026]. It is filed as functional.
For assay [10], the target named is T4, Cannabinoid receptor 2. Nature of the assay: SAR analysis of agonists of the Cannabinoid Receptor 2 using an Image-Based Assay - Set 3. [Related pubchem assays (depositor defined):AID2013, AID2026]. Type of assay: functional.
Assay [11] deals with T5, Cannabinoid receptor 1. Nature of the assay: SAR analysis of antagonists of the Cannabinoid Receptor 1 using an Image-Based Assay - Set 4. [Related pubchem assays (depositor defined):AID2013, AID2026]. Type of assay: functional.
Assay [12] deals with T3, G-protein coupled receptor 35. Nature of the assay: SAR analysis of Agonists of the GPR35 Receptor using an Image-Based Assay - Set 4. [Related pubchem assays (depositor defined):AID2013, AID2026]. It is filed as functional.
The next assay concerns the target Prothrombin (Bos taurus, UniProt P00735). Nature of the assay: thrombin inhibition, dose response, biochemical, fluorescence polarization, uHTS hits (AID 602369). Type of assay: functional.
Assay [13] addresses T6, Small ubiquitin-related modifier 1 (Homo sapiens, UniProt P63165). Description: inhibitors of SUMO1 partner interactions, dose response, biochemical, FRET (AID 624383). Type of assay: functional. Conditions: read-out: IC50_Mean.
In assay [14] the target is T6, Small ubiquitin-related modifier 1. Nature of the assay: inhibitors of SUMO1 peptide binding, dose response, biochemical, fluorescence polarization, uHTS hits (AID 624382). It is filed as functional. As to conditions: read-out: IC50_Mean.
In assay [15] the target is Eukaryotic translation initiation factor 4E (Mus musculus, UniProt P63073). Nature of the assay: eIF4E–eIF4G protein interaction inhibitors, dose response, biochemical, TR-FRET (AID 855).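 Also: potency for disrupting eIF4E binding to eIF4GI seen as loss of FRET.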 It is filed as functional. Background: Time-resolved FRET reads energy transfer from a long-lived donor to a nearby acceptor.
The target in the next assay is NS3 (Hepatitis C virus, UniProt A3EZJ3). Description: PubChem AID 2173. Further details: species or system Hepacivirus hominis.
Assay [16] has as its target T7, Tyrosine-protein phosphatase non-receptor type 22 (Homo sapiens, UniProt Q9Y2R2).
T7 sequence (Q9Y2R2 whole entry): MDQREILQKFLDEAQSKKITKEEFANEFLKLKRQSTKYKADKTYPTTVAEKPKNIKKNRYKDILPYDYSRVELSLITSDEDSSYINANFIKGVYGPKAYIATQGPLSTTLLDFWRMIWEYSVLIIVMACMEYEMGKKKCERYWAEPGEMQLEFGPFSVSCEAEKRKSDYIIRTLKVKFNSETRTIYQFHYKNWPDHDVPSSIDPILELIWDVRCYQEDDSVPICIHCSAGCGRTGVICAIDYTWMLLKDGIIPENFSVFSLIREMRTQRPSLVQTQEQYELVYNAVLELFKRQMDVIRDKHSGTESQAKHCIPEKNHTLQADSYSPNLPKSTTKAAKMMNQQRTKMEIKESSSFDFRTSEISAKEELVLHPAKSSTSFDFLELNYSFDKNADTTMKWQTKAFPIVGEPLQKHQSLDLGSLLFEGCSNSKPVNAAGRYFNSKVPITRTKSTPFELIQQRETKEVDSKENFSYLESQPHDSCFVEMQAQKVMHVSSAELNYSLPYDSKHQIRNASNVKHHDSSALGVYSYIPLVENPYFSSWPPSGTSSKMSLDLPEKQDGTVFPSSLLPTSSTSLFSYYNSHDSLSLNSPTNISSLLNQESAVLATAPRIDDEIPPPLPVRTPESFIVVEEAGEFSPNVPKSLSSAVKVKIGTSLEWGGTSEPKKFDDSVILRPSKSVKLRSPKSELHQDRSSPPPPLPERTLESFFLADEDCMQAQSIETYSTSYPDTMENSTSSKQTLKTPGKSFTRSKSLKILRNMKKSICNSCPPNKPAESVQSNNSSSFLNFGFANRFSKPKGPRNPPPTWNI
Type of assay: functional.

The target of assay [17] is T8, Dual specificity protein phosphatase 3 (Homo sapiens, UniProt P51452). Nature of the assay: VHR1 phosphatase inhibitors, biochemical (AID 1878).
T8 sequence (P51452 whole entry): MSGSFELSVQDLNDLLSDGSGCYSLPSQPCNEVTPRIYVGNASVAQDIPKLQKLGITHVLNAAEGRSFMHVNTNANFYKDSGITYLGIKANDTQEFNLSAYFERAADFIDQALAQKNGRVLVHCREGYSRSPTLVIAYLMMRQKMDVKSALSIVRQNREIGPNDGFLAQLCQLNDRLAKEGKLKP
The target in assay [18] is T7, Tyrosine-protein phosphatase non-receptor type 22. Type of assay: functional. This is another data set of the same source.
Assay [19] has as its target T8, Dual specificity protein phosphatase 3. Nature of the assay: SAR VHR1 Fluorescent Assay for In Vitro dose response studies. [Related pubchem assays (depositor defined):AID1654, AID1661, AID1878, AID1992, AID2004, AID2070, AID2085]. It is filed as functional.
Assay [20] shares this target. Description: VHR1 phosphatase inhibitors, primary screen, biochemical, absorbance, uHTS (AID 1654).
For assay [21], the target named is Induced myeloid leukemia cell differentiation protein Mcl-1 (Homo sapiens, UniProt Q07820). Type of assay: functional.
Assay [22] deals with 72 kDa type IV collagenase (Homo sapiens, UniProt P08253). Description: Dose Response validation of uHTS RPN11 inhibitor hits using a MMP-2 Fluorescence assay. It is filed as functional.
Assay [23] deals with T9, Dual specificity protein phosphatase 6 (Rattus norvegicus, UniProt Q64346).
T9 sequence (Q64346 whole entry): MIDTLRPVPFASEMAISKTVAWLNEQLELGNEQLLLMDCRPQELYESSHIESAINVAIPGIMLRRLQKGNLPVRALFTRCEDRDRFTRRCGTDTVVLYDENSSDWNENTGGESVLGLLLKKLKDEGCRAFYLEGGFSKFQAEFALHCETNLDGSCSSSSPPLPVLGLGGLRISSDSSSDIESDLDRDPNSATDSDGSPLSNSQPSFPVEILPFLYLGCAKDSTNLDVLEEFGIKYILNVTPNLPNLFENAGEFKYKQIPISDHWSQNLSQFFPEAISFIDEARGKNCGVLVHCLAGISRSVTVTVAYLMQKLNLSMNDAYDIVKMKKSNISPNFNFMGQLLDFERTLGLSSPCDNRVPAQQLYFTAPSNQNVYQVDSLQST
Type of assay: functional.

Assay [24] addresses T10, Tyrosine-protein phosphatase non-receptor type 7 (Homo sapiens, UniProt P35236).
T10 sequence (P35236 whole entry): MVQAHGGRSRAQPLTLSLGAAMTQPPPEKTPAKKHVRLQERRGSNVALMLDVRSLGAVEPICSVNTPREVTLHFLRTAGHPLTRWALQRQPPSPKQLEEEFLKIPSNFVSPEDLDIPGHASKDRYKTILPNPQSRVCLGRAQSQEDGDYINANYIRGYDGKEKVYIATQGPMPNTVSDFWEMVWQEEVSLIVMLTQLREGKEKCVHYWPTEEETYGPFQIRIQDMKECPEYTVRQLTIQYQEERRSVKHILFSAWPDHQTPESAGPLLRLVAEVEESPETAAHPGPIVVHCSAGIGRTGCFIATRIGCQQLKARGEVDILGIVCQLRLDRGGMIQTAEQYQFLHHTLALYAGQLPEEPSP
Description: redox-dependent HePTP inhibition, mechanism study, biochemical, fluorescence (AID 2068). It is filed as functional.

Assay [25] deals with T9, Dual specificity protein phosphatase 6. Description: MKP-3 phosphatase inhibitors, primary screen, biochemical, rat enzyme, in vitro (AID 425).
Assay [26] addresses T10, Tyrosine-protein phosphatase non-receptor type 7. Type of assay: functional.
Assay [27] concerns the target 26S proteasome non-ATPase regulatory subunit 14 (Homo sapiens, UniProt O00487). Description: inhibition of proteasome subunit RPN11 – biochemical, fluorescence polarization, uHTS hits, confirmation (AID 602368). It is filed as functional. (In general: Polarisation of emitted light reports the rotation of a fluorescent probe.)
For assay [28], the target named is T8, Dual specificity protein phosphatase 3. Nature of the assay: SAR VHR1 Fluorescent Assay for In Vitro dose response studies Set 2. [Related pubchem assays (depositor defined):AID1654, AID1661, AID1878]. Type of assay: functional.
Assay [29] shares this target. Nature of the assay: SAR VHR1 absorbance Assay for In Vitro dose response studies. [Related pubchem assays (depositor defined):AID1654, AID1661, AID1878, AID1992, AID2004].
Assay [30] concerns the target T11, Voltage-gated N-type calcium channel alpha-1B subunit/Amyloid beta A4 precursor protein-binding family A member 1 (Homo sapiens, UniProt Q00975+Q02410). It is filed as protein assay.
The target in assay [31] is T11, Voltage-gated N-type calcium channel alpha-1B subunit/Amyloid beta A4 precursor protein-binding family A member 1. Type of assay: protein assay. The source holds these as a separate data set.

T3 sequence (Q9HC97 whole entry): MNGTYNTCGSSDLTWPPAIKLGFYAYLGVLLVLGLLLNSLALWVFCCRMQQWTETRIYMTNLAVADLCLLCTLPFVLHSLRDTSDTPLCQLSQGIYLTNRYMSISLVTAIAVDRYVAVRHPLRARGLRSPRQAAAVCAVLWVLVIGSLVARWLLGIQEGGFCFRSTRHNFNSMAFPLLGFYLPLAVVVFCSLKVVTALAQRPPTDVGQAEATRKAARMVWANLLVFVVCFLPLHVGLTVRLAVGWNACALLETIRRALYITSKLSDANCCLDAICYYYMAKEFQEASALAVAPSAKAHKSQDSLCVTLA
T6 sequence (P63165 whole entry): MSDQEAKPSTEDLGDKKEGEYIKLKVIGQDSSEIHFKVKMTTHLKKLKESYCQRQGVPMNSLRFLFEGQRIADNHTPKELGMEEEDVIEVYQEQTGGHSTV
T11 sequence (Q00975 whole entry): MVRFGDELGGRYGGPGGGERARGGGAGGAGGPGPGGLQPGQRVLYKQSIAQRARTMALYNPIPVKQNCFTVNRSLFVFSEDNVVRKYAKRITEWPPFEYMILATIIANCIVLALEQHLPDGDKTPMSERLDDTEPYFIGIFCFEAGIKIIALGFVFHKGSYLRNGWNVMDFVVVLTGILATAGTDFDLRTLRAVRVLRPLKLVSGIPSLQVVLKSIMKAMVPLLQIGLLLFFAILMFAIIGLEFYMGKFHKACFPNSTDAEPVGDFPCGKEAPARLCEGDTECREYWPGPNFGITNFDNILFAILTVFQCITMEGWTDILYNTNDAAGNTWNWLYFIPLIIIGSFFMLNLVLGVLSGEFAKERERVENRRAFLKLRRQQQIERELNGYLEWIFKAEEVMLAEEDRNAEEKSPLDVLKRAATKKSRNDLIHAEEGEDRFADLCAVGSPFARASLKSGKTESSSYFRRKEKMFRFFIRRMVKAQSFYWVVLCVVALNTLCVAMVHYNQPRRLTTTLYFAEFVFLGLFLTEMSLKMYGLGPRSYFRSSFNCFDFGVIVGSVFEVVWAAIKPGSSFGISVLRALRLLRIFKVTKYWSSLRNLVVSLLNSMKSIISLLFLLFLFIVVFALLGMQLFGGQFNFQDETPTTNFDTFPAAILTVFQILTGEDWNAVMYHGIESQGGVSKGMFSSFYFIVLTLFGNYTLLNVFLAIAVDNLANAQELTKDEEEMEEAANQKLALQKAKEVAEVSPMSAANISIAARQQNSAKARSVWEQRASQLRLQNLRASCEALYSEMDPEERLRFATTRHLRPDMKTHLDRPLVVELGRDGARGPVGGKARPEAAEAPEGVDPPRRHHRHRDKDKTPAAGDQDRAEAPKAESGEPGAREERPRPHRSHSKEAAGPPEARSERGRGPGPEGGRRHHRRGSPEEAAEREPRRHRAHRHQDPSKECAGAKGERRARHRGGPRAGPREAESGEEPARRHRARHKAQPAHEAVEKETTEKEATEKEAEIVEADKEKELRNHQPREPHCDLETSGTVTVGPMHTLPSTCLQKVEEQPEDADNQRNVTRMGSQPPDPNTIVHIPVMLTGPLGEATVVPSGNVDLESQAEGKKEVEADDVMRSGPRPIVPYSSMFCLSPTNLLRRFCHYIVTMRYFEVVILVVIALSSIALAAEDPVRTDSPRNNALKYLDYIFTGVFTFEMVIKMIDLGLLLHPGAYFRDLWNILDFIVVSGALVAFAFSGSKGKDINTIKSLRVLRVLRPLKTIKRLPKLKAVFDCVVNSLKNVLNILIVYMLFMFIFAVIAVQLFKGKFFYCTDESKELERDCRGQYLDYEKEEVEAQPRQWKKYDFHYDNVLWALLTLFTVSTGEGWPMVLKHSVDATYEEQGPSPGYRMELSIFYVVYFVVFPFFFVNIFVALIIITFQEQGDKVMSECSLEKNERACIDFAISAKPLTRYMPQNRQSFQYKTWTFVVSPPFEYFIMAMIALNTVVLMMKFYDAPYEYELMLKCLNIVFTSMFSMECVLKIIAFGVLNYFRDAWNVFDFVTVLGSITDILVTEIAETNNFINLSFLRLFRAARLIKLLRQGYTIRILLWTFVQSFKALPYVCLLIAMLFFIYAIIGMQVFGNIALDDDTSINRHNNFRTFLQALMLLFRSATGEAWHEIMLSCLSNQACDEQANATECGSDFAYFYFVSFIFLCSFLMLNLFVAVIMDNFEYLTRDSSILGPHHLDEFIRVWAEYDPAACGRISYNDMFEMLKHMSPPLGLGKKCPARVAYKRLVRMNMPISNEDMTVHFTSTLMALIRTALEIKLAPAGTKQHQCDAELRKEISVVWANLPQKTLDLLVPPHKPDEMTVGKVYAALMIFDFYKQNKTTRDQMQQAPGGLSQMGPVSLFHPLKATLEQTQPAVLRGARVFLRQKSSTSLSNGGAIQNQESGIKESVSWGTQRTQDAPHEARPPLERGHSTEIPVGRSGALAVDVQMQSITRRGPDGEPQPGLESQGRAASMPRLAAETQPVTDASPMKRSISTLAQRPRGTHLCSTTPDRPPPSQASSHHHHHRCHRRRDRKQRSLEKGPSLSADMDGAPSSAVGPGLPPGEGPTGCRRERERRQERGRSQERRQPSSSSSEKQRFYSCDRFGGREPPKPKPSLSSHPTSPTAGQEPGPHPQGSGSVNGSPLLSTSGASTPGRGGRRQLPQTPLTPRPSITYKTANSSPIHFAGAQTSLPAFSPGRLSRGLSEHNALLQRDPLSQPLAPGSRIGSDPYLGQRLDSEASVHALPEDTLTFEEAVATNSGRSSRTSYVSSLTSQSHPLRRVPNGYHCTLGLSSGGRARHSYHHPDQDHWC
T11 sequence (Q02410 whole entry): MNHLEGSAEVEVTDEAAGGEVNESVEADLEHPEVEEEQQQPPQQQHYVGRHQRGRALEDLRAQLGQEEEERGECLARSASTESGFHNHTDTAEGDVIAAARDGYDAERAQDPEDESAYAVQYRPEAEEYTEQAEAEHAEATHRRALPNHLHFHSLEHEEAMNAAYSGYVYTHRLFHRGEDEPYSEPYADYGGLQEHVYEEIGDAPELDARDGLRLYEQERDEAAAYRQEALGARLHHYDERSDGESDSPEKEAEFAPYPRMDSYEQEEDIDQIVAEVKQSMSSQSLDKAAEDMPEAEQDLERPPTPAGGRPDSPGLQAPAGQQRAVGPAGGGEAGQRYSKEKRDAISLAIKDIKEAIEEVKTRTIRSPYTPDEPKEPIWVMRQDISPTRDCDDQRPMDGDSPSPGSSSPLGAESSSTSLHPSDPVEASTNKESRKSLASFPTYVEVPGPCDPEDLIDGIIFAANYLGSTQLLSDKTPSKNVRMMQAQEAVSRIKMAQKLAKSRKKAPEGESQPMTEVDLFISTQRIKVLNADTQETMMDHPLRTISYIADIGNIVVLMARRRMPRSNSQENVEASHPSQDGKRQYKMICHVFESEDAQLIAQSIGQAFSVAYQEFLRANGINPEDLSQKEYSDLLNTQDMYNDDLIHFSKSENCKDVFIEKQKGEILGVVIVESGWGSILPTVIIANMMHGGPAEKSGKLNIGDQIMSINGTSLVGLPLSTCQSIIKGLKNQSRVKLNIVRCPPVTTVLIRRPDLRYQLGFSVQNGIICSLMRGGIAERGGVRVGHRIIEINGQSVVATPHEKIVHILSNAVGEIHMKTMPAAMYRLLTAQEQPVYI
T2 sequence (P41143 whole entry): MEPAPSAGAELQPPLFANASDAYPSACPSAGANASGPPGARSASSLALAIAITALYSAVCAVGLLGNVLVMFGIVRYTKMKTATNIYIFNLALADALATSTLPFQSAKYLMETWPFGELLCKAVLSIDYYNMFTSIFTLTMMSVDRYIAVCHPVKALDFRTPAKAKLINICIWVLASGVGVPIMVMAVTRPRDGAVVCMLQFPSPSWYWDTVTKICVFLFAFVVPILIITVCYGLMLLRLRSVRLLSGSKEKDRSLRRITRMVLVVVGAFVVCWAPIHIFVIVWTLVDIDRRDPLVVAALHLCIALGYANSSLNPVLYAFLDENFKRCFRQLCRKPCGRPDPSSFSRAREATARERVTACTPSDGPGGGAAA

`c1ccc(CSc2nnc(-c3ccncc3)n2Cc2ccco2)cc1`: the EC50 in [1] is > 20 µM (inactive).

On to `COc1ccc(S(=O)(=O)N(CC(=O)Nc2ccc(S(=O)(=O)N3CCOCC3)cc2)c2ccccc2)cc1`, for which the IC50 was > 32 µM (inactive) in assay [2], 2.82 µM (active) in [3] and 4.04 µM in assay [4]. Besides, the EC50 was > 32 µM (inactive) at Mu-type opioid receptor, > 32 µM (inactive) in [5] and > 31.5 µM (inactive) on Beta-galactosidase.

`Cc1ccc(-n2cc3c(-c4ccc(Cl)cc4)nnc(C)c3n2)cc1`: the IC50 in [6] was > 32 µM (inactive); in [7], 6.13 µM (active); on Cannabinoid receptor 2 [8], 29.8 µM (inactive); at Cannabinoid receptor 1 [11], 0.87 µM (active). The EC50 (on Cannabinoid receptor 1 [9]; at Cannabinoid receptor 2 [10]; in [12]) was > 32 µM (inactive) throughout.

In the case of `CCOC(=O)c1sc2nc3c(SCCC(=O)O)cc(C(=O)c4cc(OC)ccc4O)cn3c(=O)c2c1C`, the IC50 on Prothrombin is 72.5 µM (active); in assay [13] it was 5.54 µM (active); in [14], > 66.6 µM (inactive); in assay [15] it was 50 µM (inactive); at NS3, 2.58 µM (active); in assay [16], 2.02 µM (active). Also, the IC50 in [17] is < 1.23 µM (inactive); in assay [18], 7.26 µM (active); in assay [19], 0.48 µM (active); in [20] it was 4.87 µM (active); in assay [21], 1.24 µM (active); in assay [22], 1.04 µM (active). Also, the IC50 in [23] is 59.5 µM (active); in assay [24], 0.209 µM (active); in assay [25], 101 µM (not active); in [26], 1.68 µM (active); in [27], 8.13 µM (active); in assay [28] it was < 0.195 µM (active). The IC50 in [29] is 1.29 µM (active); in assay [30], 8.15 µM (active); in assay [31] it was 36.2 µM (active).

Broadly, the EC50 is the concentration giving half of the maximal effect.
